In patent US9072734B2, “Quaternary ammonium salt compounds” (Teijin Pharma Limited, priority 2009, dated 2015):
Structures can show the parent of a compound that is named as a salt.

How the values were obtained:
[1] = biological target: T1, human M3 muscarinic receptor (Homo sapiens, UniProt P20309); test: Competition binding assays to human M3 muscarinic receptor ([3H]-NMS displacement, membrane fractions); conditions: competition with 1 nM [3H]-NMS
T1 construct: expressed in transfected cells; host or cells: CHO-K1
Procedure: Membrane fractions of human M3 muscarinic receptor were purchased from PerkinElmer, Inc. and stored at −80° C. until use. Phosphate buffered saline (PBS(−), Invitrogen, Co.) was used as assay buffer. The membrane fractions of human M3 muscarinic receptor (10-15 μg of membrane protein) and 1 nM L-[N-methyl-3H]scopolamine methyl chloride ([3H]—NMS) (NET636, 2.59 TBq/mmol, PerkinElmer, Inc.) were added to a final volume of 100 μL and incubated for 2 hours at room temperature (total binding). […] The amount of nonspecific binding was determined in the presence of 5 μM atoropine. […] The filter plates were washed three times with a washing solution (50 mM Tris hydrochloric acid pH 7.4, 0.9% sodium chloride) to remove unbound radioactivity. The plates were then dried and 40 μL Microscint-20 liquid TopCount microplate scintillation cocktail (PerkinElmer Inc.) was added and plates were counted in a Packard TopCount liquid scintillation counter (PerkinElmer, Inc.). The percentage of the binding inhibition by the test compound was calculated according to the following formula. (%)Percentage of binding inhibition=[(Radioactivity of test compound-added sample−Amount of nonspecific binding)/(Amount of total binding−Amount of nonspecific binding)]×100 […]

[2] = biological target: T2, human β2 adrenergic receptor (Homo sapiens, UniProt P07550); test: Whole-cell cAMP Flashplate assay using CHO-K1 cells stably expressing human β2 adrenergic receptor; type: cell-based; conditions: cAMP production
T2 construct: expressed in transfected cells; host or cells: CHO-K1

[3] = biological target: T1, human M3 muscarinic receptor; test: Inhibitory effect on methacholine-induced calcium influx, FLIPR assay, CHO-K1 cells stably expressing the human M3 muscarinic receptor; type: cell-based; conditions: inhibition of calcium influx induced by methacholine
Outline: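 Dye-loaded hM3 CHO-K1 cells were preincubated 180 s with compound solutions prepared at 10 two-fold concentrations (0.01–1000 nM). A 30 nM methacholine solution was then added. Fluorescence was traced for 170 s; max−min signal gave % inhibition against agonist and no-agonist controls, and IC50 came from a four-parameter logistic fit.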

T1 sequence (P20309 whole entry): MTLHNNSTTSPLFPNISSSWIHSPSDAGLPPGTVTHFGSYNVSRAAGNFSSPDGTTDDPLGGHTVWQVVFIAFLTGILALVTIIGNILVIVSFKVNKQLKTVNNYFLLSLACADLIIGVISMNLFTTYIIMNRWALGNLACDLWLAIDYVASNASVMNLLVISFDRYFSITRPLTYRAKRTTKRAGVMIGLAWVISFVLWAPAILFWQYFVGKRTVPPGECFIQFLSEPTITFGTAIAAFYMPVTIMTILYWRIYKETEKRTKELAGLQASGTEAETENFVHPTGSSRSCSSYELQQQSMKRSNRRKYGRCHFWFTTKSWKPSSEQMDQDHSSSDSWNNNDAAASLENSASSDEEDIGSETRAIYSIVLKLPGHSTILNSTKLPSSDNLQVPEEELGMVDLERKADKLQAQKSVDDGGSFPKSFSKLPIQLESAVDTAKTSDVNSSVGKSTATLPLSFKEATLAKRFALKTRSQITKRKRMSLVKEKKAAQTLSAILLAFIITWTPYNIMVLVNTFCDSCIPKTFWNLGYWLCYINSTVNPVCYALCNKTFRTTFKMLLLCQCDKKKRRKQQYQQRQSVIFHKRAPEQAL
T2 sequence (P07550 whole entry): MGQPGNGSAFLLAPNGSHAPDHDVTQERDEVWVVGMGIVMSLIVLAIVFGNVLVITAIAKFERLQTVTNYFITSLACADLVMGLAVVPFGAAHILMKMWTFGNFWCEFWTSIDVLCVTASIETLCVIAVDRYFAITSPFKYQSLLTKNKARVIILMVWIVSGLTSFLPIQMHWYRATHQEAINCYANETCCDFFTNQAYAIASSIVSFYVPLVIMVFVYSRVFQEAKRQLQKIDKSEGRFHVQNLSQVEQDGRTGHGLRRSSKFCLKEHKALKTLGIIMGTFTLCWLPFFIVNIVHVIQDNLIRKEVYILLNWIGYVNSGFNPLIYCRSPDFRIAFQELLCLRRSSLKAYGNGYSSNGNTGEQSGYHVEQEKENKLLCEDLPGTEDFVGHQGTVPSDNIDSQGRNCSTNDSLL

IC50 [1]	EC50 [2]	IC50 [3]	Structure (SMILES)
< 10 nM	0.3 nM	13.2 nM	COc1cc(NC(=O)CCCCc2ccc(-c3ccccc3)c(NC(=O)OC3CC[N+](C)(C)CC3)c2)c(Cl)cc1CNC[C@H](O)c1ccc(O)c2[nH]c(=O)ccc12 [Example 51, 4-({[5-(4-{[2-chloro-4-({[(2R)-2-hydroxy-2-(8-hydroxy-2-oxo-1,2-dihydroquinolin-5-yl)ethyl]amino}methyl)-5-methoxyphenyl]carbamoyl}butyl)-2-phenylphenyl]carbamoyl}oxy)-1,1-dimethylpiperidin-1-ium trifluoroacetate]
< 10 nM	1.3 nM	6.4 nM	C[N+]1(C)CCC(OC(=O)Nc2cc(CCC(=O)Nc3ccc(CNC[C@H](O)c4ccc(O)c5[nH]c(=O)ccc45)cc3)ccc2-c2ccccc2)CC1 [Example 1, 4-({[5-(2-{[4-({[(2R)-2-hydroxy-2-(8-hydroxy-2-oxo-1,2-dihydroquinolin-5-yl)ethyl]amino}methyl)phenyl]carbamoyl}ethyl)-2-phenylphenyl]carbamoyl}oxy)-1,1-dimethylpiperidin-1-ium trifluoroacetate]
